The results in this text go back to patent publication US11040968B2, “Pyridine derivative as ASK1 inhibitor and preparation method and use thereof” (FUJIAN COSUNTER PHARMACEUTICAL CO., LTD., priority 2017, dated 2021).

Read-outs that look alike come from different tables or passages of the source.

One data set deals with ASK1/MAP3K5 (Homo sapiens (Human), UniProt Q99683). Kind of data set: Enzyme activity: ASK1 kinase 33P-ATP filter-binding assay with MBP substrate. It counts as biochemical. The protocol: Experimental Example 1: Enzyme Activity
Sequence of ASK1/MAP3K5 (Q99683 whole entry): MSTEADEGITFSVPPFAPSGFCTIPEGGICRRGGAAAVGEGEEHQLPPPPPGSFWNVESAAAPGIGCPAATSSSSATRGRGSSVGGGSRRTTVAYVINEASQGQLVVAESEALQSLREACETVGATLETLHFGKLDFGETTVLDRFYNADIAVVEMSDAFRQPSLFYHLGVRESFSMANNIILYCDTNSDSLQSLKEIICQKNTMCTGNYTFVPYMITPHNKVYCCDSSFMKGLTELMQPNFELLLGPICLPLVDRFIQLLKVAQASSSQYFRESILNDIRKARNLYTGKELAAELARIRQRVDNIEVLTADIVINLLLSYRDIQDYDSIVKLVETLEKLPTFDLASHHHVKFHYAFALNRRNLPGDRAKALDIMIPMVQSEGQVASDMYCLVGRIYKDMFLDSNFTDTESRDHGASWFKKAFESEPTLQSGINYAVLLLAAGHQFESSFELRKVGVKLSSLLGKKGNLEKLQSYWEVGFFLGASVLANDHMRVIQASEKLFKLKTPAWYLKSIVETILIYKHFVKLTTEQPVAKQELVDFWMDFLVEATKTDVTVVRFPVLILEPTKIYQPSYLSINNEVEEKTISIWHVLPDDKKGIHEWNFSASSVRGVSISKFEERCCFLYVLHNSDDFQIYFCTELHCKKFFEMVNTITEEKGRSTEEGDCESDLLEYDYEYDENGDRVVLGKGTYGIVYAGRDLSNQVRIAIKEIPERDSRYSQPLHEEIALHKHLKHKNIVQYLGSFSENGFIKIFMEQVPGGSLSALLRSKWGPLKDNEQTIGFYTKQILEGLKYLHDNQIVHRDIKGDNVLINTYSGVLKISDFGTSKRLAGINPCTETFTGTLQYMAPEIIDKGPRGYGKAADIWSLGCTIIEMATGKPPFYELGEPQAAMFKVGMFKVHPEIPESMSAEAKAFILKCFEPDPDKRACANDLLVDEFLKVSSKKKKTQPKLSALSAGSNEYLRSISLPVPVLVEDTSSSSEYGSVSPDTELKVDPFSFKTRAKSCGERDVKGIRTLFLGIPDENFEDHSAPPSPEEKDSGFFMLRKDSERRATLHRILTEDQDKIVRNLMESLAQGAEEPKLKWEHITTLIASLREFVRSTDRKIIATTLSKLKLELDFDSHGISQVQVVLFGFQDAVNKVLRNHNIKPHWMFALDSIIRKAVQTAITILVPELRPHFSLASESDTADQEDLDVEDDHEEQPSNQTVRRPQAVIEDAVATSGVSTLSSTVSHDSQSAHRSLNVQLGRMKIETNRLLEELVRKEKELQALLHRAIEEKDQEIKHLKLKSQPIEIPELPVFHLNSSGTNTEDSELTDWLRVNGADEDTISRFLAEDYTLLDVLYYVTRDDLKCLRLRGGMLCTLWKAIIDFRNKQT
Primary reaction buffer solution: 20 mM Hepes (pH 7.5), 10 mM MgCl2, 1 mM EGTA, 0.02% Brij35, 0.02 mg/ml BSA, 0.1 mM Na3VO4, 2 mM DTT, 1% DMSO
Treatment of the Compound:
The tested compounds were formulated into a 10 mM stock solution in DMSO, diluted in 3-fold gradient for a total of 10 concentrations, and placed in a 384-well plate (Cyclic Olefin Copolymer LDV Echo®).
Kinase Name: ASK1/MAP3K5 (Invitrogen, Carlsbad, Calif.)
Type: Recombinant Human Full Length Protein, GST-tagged
Final reaction concentration of the enzyme: 20 nM
Substrate: Myelin basic protein, MBP (Active Motif, Carlsbad, Calif.)
Final reaction concentration of the substrate: 20 μM
1. The substrate was dissolved in a freshly prepared primary reaction buffer solution,
2. The desired coenzyme factor was added to the above substrate solution,
3. The kinase was added to the substrate solution and mix gently,
4. The solution tested compound in DMSO was added to the kinase reaction solution and incubated at room temperature for 20 minutes.
5. The reaction was initiated by adding ^33P-ATP (specific activity 10 μCi/μL) to the reaction solution.
6. Incubated at room temperature for 2 hours.
7. A small portion of the reactants were placed onto the P-81 ion exchange filter paper.
8. The filter paper was washed three times with 0.75% phosphate buffer to wash away unbound phosphate, and then dried.
9. The radioactivity remaining on the filter paper was determined,
10. The data for the kinase activity was expressed as the ratio of the kinase activity remaining in the test sample to the kinase activity in the vehicle (DMSO).
11. IC50 values and curve fitting were collected by Prism (GraphPad software).

Data set [1] in a line: Pharmacokinetic characteristics study in mice (plasma, LC-MS/MS). It counts as in vivo. Conditions: C57BL/6 male mice. On the procedure: Experimental Example 2: Pharmacokinetic Characteristics Study
C57BL/6 male mice were used in this study. The drug concentration in the plasma of mice subjected to intravenous or oral administration of the test compound at different time points were quantitatively determine by LC/MS/MS method, respectively, in order to evaluate the pharmacokinetic characteristics of the tested drugs in mice.
A clear solution of the test compound was injected into C57BL/6 mice via the tail vein (overnight fasting, 7-10 weeks old), and the test compound was intragastrically administered to C57BL/6 mice (overnight fasting, 7-10 weeks old). 30 μL of the blood was collected from the jugular vein or the tail vein of the animals 0.0833, 0.25, 0.5, 1, 2, 4, 6, 8 and 24 hours after administration, and placed in the anticoagulant tube containing EDTA-K2, followed by centrifugation at 4° C. for 15 minutes to collect the plasma. The plasma concentration was determined by LC-MS/MS. The pharmacokinetic parameters were calculated by the non-compartment model linear logarithmic trapezoidal method using WinNonlin™ Version 6.3 (Pharsight, Mountain View, Calif.) pharmacokinetic software.

[2] abbreviates: ASK1 enzyme activity, class symbols, read-out: IC50 value.
Setting [3] is: recombinant human full length GST-tagged ASK1 20 nM, MBP 20 μM, 33P-ATP, 2 hours room temperature, read-out: IC50.

In the case of `Cc1cc(F)c(C(=O)Nc2cccc(-c3nnc4n3CCC4)n2)cc1-n1cnc(C2CC2)c1` [WX001], the figures for the IC50 on ASK1/MAP3K5 (setting [2]) and at ASK1/MAP3K5 (setting [3]) were no more than 100 nM and 1.82 nM, respectively.

Regarding `Cc1cc(F)c(C(=O)Nc2cccc(-c3nnc4n3CCCC4)n2)cc1-n1cnc(C2CC2)c1` [WX002], the IC50 at ASK1/MAP3K5 (setting [2]) is no more than 100 nM; at ASK1/MAP3K5 (setting [3]), 5.6 nM. Also, in data set [1] (intravenous or oral (intragastric) administration), the “Exposure” value stood at 408.566 µM·h. In addition, in data set [1] (mouse, intragastric vs intravenous administration), the bioavailability was 156%.

In the case of `Cc1cc(F)c(C(=O)Nc2cccc(-c3nnc4n3CCCC4)n2)cc1-n1cc(C2CC2)nn1` [WX003], the IC50 is greater than 100 nM at ASK1/MAP3K5 (setting [2]) and 943 nM at ASK1/MAP3K5 (setting [3]).

With `Cc1cc(F)c(C(=O)Nc2cccc(-c3nnc4n3CCCC4)n2)cc1-n1nnc(C2CC2)n1` [WX004], the figures for the IC50 on ASK1/MAP3K5 (setting [2]) and on ASK1/MAP3K5 (setting [3]) were greater than 100 nM and greater than 1000 nM, respectively.

In the case of `Cc1cc(F)c(C(=O)Nc2cccc(-c3nnc4n3CCCC4)n2)cc1-n1cnc(C2CC2)n1` [WX005], the IC50 on ASK1/MAP3K5 (setting [2]) is no more than 100 nM; at ASK1/MAP3K5 (setting [3]), 35.3 nM.

Regarding `O=C(Nc1cccc(-c2nnc3n2CCCC3)n1)c1cc(-n2cnc(C3CC3)c2)c(-c2cccnc2)cc1F` [WX006], on ASK1/MAP3K5 (setting [3]), the IC50 came out at 19.2 nM.

On to `COCCOc1cc(F)c(C(=O)Nc2cccc(-c3nnc4n3CCCC4)n2)cc1-n1cnc(C2CC2)c1` [WX007], for which, on ASK1/MAP3K5 (setting [3]), the IC50 worked out at 16.6 nM.

In the case of `O=C(Nc1cccc(-c2nnc3n2CCCC3)n1)c1cc(-n2cnc(C3CC3)c2)c(O)cc1F` [WX008], the IC50 at ASK1/MAP3K5 (setting [3]) amounted to 5.44 nM.

For the compound `CC1(COc2cc(F)c(C(=O)Nc3cccc(-c4nnc5n4CCCC5)n3)cc2-n2cnc(C3CC3)c2)COC1` [WX010], the IC50 on ASK1/MAP3K5 (setting [3]) was found to be 7.2 nM.

`O=C(Nc1cccc(-c2nnc3n2CCCC3)n1)c1cc(-n2cnc(C3CC3)c2)c(OCC2COC2)cc1F` [WX011]: the IC50 at ASK1/MAP3K5 (setting [3]) is 7.61 nM.

For `O=C(Nc1cccc(-c2nnc3n2CCCC3)n1)c1cc(-n2cnc(C3CC3)c2)c(OCCF)cc1F` [WX012], the 50% inhibitory concentration (IC50) at ASK1/MAP3K5 (setting [3]) is 7.04 nM.

For the compound `O=C(Nc1cccc(-c2nnc3n2CCCC3)n1)c1cc(-n2cnc(C3CC3)c2)c(OCCCF)cc1F` [WX013], the IC50 at ASK1/MAP3K5 (setting [3]) was determined as 7.93 nM.

As for `CN(C)c1cc(F)c(C(=O)Nc2cccc(-c3nnc4n3CCCC4)n2)cc1-n1cnc(C2CC2)c1` [WX014], the IC50 on ASK1/MAP3K5 (setting [3]) was found to be 10.7 nM.

For `O=C(Nc1cccc(-c2nnc3n2CCCC3)n1)c1cc(-n2cnc(C3CC3)c2)c(N2CCOCC2)cc1F` [WX015], the IC50 on ASK1/MAP3K5 (setting [3]) amounted to 10.1 nM.

In the case of `Cc1cc(F)c(C(=O)Nc2cccc(-c3nnc4n3CCCC4O)n2)cc1-n1cnc(C2CC2)c1` (stereo not shown) [WX016], the IC50 on ASK1/MAP3K5 (setting [3]) turned out to be 4.12 nM.
